Test: not given
Settings: cited from earlier work
In the case of `CCBr` [ethyl bromide], the solubility in water is listed as 0.91 grams per 100 ml of water. In the case of `CCCC(=O)OCC` [ethyl butyrate], the solubility in water is given as 0.68 grams per 100 ml of water. In the case of `COC(=O)c1ccccc1` [methyl benzoate], the solubility in water is listed as 0.157 grams per 100 ml of water. For `CBr` [methyl bromide], the solubility in water is given as 0.09 grams per 100 ml of water.

Test: solubility in water
Settings: same solubility expressed in moles
For `CCBr` [ethyl bromide], the “solubility in water (molar)” value was 0.0835 moles per 1000 ml of water. For `CCCC(=O)OCC` [ethyl butyrate], the “solubility in water (molar)” value was 0.059 moles per 1000 ml of water. In the case of `COC(=O)c1ccccc1` [methyl benzoate], the “solubility in water (molar)” value is reported as 0.001532 moles per 1000 ml of water. With `CBr` [methyl bromide] the “solubility in water (molar)” value was 0.0094 moles per 1000 ml of water.

Reference: patent publication US9102582B2, “Method of producing alcohols” (priority 2009, dated 2015)
